Test results reported in patent US20250017935A1, “7,8-DIHYDRO-5H-1,6-NAPHTHYRIDINE DERIVATIVES AS POSITIVE ALLOSTERIC MODULATORS OF THE MUSCARINIC ACETYLCHOLINE RECEPTOR M4 FOR TREATING NEUROLOGICAL AND PSYCHIATRIC DISORDERS” (Vanderbilt University, priority 2021, published 2025).
pEC50: −log10 of the molar value.

Target: T1, Human M4 (Homo sapiens, UniProt P08173)
T1 construct: expressed in transfected cells; host or cells: CHO-K1 (ATCC), stably expressing hM4 and Gqi5
T1 sequence (P08173 1-479): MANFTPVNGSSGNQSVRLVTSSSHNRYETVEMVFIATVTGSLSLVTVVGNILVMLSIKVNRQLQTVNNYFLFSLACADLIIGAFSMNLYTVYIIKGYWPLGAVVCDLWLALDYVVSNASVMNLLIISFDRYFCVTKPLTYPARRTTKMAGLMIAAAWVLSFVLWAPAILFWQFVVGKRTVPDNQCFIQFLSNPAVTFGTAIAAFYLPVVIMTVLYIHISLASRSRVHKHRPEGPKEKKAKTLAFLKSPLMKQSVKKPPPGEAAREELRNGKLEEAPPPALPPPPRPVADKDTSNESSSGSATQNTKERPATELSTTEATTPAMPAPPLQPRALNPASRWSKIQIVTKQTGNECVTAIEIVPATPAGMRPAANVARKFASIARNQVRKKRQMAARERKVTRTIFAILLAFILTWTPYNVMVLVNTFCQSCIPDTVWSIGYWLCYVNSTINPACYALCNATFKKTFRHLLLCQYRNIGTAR
Assay: mAChR M4 cell-based functional assay (calcium flux, potentiation of EC20 acetylcholine response) in hM4-Gqi5 CHO-K1 cells
Conditions: for Emax at 30 µM: % ACh maximum at 30 μM, human M4 CHO-K1 cells; for pEC50: CHO-K1 cells transfected with human M4 and Gqi5, positive allosteric modulator activity, EC20 acetylcholine
Experimental: Human M4 cDNA, along with the chimeric G protein Gqi5, were transfected into Chinese hamster ovary (CHO-K1) cells purchased from the American Type Culture Collection using commercially available Lipofectamine 2000 transfection reagent (Dalby, B. et al., Methods (2004) 33(2), 95-103). hM4-Gqi5 cells were grown in Ham's F-12 medium containing 10% heat-inactivated fetal bovine serum (FBS), 20 mM HEPES, 50 μg/mL G418 sulfate (CAS #108321-42-2), and 500 μg/mL Hygromycin B. rM4-Gqi5 cells were grown in DMEM containing 10% heat-inactivated FBS, 20 mM HEPES, 400 μg/mL G418 sulfate, and 500 μg/mL Hygromycin B.
For high throughput measurement of agonist-evoked increases in intracellular calcium, CHO-K1 cells stably expressing muscarinic receptors were plated in growth medium lacking G418 sulfate and hygromycin at 15,000 cells/20 μL/well in Greiner 384-well black-walled, tissue culture (TC)-treated, clear-bottom plates (VWR). Cells were incubated overnight at 37° C. and 5% CO2. The next day, cells were washed using an ELX 405 (BioTek) with assay buffer; the final volume was then aspirated to 20 μL. Next, 20 μL of a 2.3 μM stock of Fluo-4/acetoxymethyl ester (Invitrogen, Carlsbad, CA), prepared as a 2.3 mM stock in DMSO and mixed in a 1:1 ratio with 10% (w/v) Pluronic F-127 and diluted in assay buffer, was added to the wells and the cell plates were incubated for 50 minutes at 37° C. and 5% CO2. Dye was removed by washing with the ELX 405 and the final volume was aspirated to 20 μL. Compound master plates were formatted in an 11 point concentration-response curve (CRC) format (1:3 dilutions) in 100% DMSO with a starting concentration of 10 mM using a BRAVO liquid handler (Agilent). Test compound CRCs were then transferred to daughter plates (240 nL) using the Echo acoustic plate reformatter (Labcyte, Sunnyvale, CA) and then diluted into assay buffer (40 μL) to a 2× stock using a Thermo Fisher Combi (Thermo Fisher Scientific, Waltham, MA).
Calcium flux was measured using the Functional Drug Screening System (FDSS) 6000 or 7000 (Hamamatsu Corporation, Tokyo, Japan) as an increase in the fluorescent static ratio. Compounds were applied to cells (20 μL, 2×) using the automated system of the FDSS at 2-4 seconds into the protocol and the data were collected at 1 Hz. […] Agonist activity was analyzed as a concentration-dependent increase in calcium mobilization upon compound addition. Positive allosteric modulator activity was analyzed as a concentration-dependent increase in the EC20 acetylcholine response. With the acetylcholine EC20 set as baseline, the test compound EC50 is determined as the concentration that produces an increase above baseline of 50% of the maximum increase in acetylcholine response elicted by the test compound. Antagonist activity was analyzed as a concentration-dependent decrease in the EC80 acetylcholine response. Concentration-response curves were generated using a four-parameter logistical equation in XLFit curve fitting software (IDBS, Bridgewater, NJ) for Excel (Microsoft, Redmond, WA) or Prism (GraphPad Software, Inc., San Diego, CA).
Compounds were synthesized as described above. Activity (EC50 and Emax) was determined in the mAChR M4 cell-based functional assay as described above and the data are shown in Table 5. The compound numbers correspond to the compound numbers used in Examples 1-13 and Tables 1, 2, and 3.

SMILES | Emax at 30 µM [%] | pEC50
Cc1coc2ncnc(N3CCc4ncc(Cc5ccccc5F)cc4C3)c12 [Compound 53, 4-[3-[(2-fluorophenyl)methyl]-7,8-dihydro-5H-1,6-naphthyridin-6-yl]-5-methyl-furo[2,3-d]pyrimidine] | 81 | 6.55
Cc1coc2ncnc(N3CCc4ncc(Cc5cccc(F)c5)cc4C3)c12 [Compound 54, 4-[3-[(3-fluorophenyl)methyl]-7,8-dihydro-5H-1,6-naphthyridin-6-yl]-5-methyl-furo[2,3-d]pyrimidine] | 78 | 6.30
FC(F)(F)c1cnc2c(c1)CN(c1nc(Cl)nc3c1CCC3)CC2 [Compound 57, 6-(2-chloro-6,7-dihydro-5H-cyclopenta[d]pyrimidin-4-yl)-3-(trifluoromethyl)-7,8-dihydro-5H-1,6-naphthyridine] | 69 | 7.00
FC(F)(F)c1cnc2c(c1)CN(c1nc(C3CC3)nc3c1CCC3)CC2 [Compound 58, 6-(2-cyclopropyl-6,7-dihydro-5H-cyclopenta[d]pyrimidin-4-yl)-3-(trifluoromethyl)-7,8-dihydro-5H-1,6-naphthyridine] | 88 | 5.83
Cc1nc2c(c(N3CCc4ncc(C(F)(F)F)cc4C3)n1)CCC2 [Compound 59, 6-(2-methyl-6,7-dihydro-5H-cyclopenta[d]pyrimidin-4-yl)-3-(trifluoromethyl)-7,8-dihydro-5H-1,6-naphthyridine] | 87 | 5.99
Cn1ncc2ncnc(N3CCc4ncc(C(F)(F)F)cc4C3)c21 [Compound 60, 6-(1-methylpyrazolo[4,3-d]pyrimidin-7-yl)-3-(trifluoromethyl)-7,8-dihydro-5H-1,6-naphthyridine] | 31 | 5.22
Cn1ccc2c(N3CCc4ncc(C(F)(F)F)cc4C3)ncnc21 [Compound 61, 6-(7-methylpyrrolo[2,3-d]pyrimidin-4-yl)-3-(trifluoromethyl)-7,8-dihydro-5H-1,6-naphthyridine] | 80 | 6.08

Continued, values first:

Emax at 30 µM [%] | pEC50 | SMILES
102 | 7.05 | Cc1ccc(-c2cnc3c(c2)CN(c2ncnc4occ(C)c24)CC3)cn1 [Compound 48, 5-methyl-4-[3-(6-methyl-3-pyridyl)-7,8-dihydro-5H-1,6-naphthyridin-6-yl]furo[2,3-d]pyrimidine]
68 | 6.89 | Cc1ncc(-c2cnc3c(c2)CN(c2ncnc4occ(C)c24)CC3)s1 [Compound 49, 5-methyl-4-[3-(2-methylthiazol-5-yl)-7,8-dihydro-5H-1,6-naphthyridin-6-yl]furo[2,3-d]pyrimidine]
100 | 6.62 | Cc1noc2ncnc(N3CCc4ncc(N5CCOc6ncccc65)cc4C3)c12 [Compound 50, 1-[6-(3-methylisoxazolo[5,4-d]pyrimidin-4-yl)-7,8-dihydro-5H-1,6-naphthyridin-3-yl]-2,3-dihydropyrido[2,3-b][1,4]oxazine]
89 | 6.29 | Cc1ccc(-c2cnc3c(c2)CN(c2ncnc4onc(C)c24)CC3)cn1 [Compound 51, 3-methyl-4-[3-(6-methyl-3-pyridyl)-7,8-dihydro-5H-1,6-naphthyridin-6-yl]isoxazolo[5,4-d]pyrimidine]
92 | 6.26 | Cc1ncc(-c2cnc3c(c2)CN(c2ncnc4onc(C)c24)CC3)s1 [Compound 52, 3-methyl-4-[3-(2-methylthiazol-5-yl)-7,8-dihydro-5H-1,6-naphthyridin-6-yl]isoxazolo[5,4-d]pyrimidine]
94 | 7.22 | Cc1coc2ncnc(N3CCc4ncc(Nc5ccnn5C)cc4C3)c12 [Compound 55, 6-(5-methylfuro[2,3-d]pyrimidin-4-yl)-N-(2-methylpyrazol-3-yl)-7,8-dihydro-5H-1,6-naphthyridin-3-amine]
74 | 7.10 | Cc1coc2ncnc(N3CCc4ncc(-c5ccnn5C)cc4C3)c12 [Compound 56, 5-methyl-4-[3-(2-methylpyrazol-3-yl)-7,8-dihydro-5H-1,6-naphthyridin-6-yl]furo[2,3-d]pyrimidine]
